{"source": "patent US12193456B2", "about": "“Early life nutrition” (DSM IP ASSETS B.V., priority 2019, dated 2025)", "key": {"calves": {"system": "calves", "assay": "Methane emissions from calves measured using the GreenFeed system after early-life supplementation", "assay_type": "in vivo, calves (Holstein, Montbéliarde, Holstein×Montbéliarde)", "conditions": "for methane emissions: n = 10", "description": "The methane emissions respectively methane reductions as referred to herein can be measured in individual animals in metabolic chambers by methods known in the art (Grainger et al., 2007 J. Dairy Science; 90: 2755-2766). Moreover, it can also be assessed at barn level by an emerging technology using laser beam (McGinn et al., 2009, Journal of Environ-mental Quality; 38: 1796-1802). Alternatively, methane produced by a ruminant can also be assessed with the GreenFeed system (C-Lock, Rapid City, SD USA), which method is preferred.\n(§1) At birth 18 female Holstein (n=12), Montbéliarde (n=4) and Holstein×Montbéliarde (n=2) calves were randomly assigned to either a treatment group (3 mg 3-NOP (active)/kg BW) or control group (placebo supplement i.e. without 3-NOP but with silica and propylene glycol). 3-NOP was supplemented in the form of a 3-NOP powdered formulation (10 wt.-% of 3-NOP admixed with silica and propylene glycol) such that breed distribution and birthweight were balanced across groups. Treatment was administered daily from birth until three weeks post-weaning (week 14) (admixed in a small volume of water and delivered by an oral gavage). Calves were weighed weekly. Milk and concentrate intake prior to weaning was recorded using automated feeders. Animals were group housed in a single pen following weaning. Samples of rumen liquid were collected at week 1, 4, 11, 14, 23 and 60 weeks of life and DNA from these samples of rumen liquid content were extracted and subjected to Illumina MiSeq sequencing. Methane emissions from the calves were measured using the GreenFeed system (C-Lock, Rapid City, SD USA) from weaning at week 11 to week 23 and later from week 56 to 60 of life."}, "[1]": {"assay": "Calf physiological parameters (bodyweight, average daily gain)", "assay_type": "in vivo, calves (Holstein, Montbéliarde, Holstein×Montbéliarde)", "conditions": "for effect on host animal performance (in words): early life treatment, birth to week 14", "experimental": "as §1"}}, "data": [{"smiles": "O=[N+]([O-])OCCCO", "note": "[3-nitrooxypropanol, 3-Nitrooxypropanol]", "values": [{"measurement": "methane emissions of treated animals (in words)", "setting": "calves; after 60 weeks of age, supplementation from birth until 14 weeks of age", "result": "lower methane emissions"}, {"measurement": "methane emissions", "setting": "calves; age 11 weeks (weaning), during daily supplementation, 3 mg 3-NOP/kg BW oral gavage from birth", "result": 45.0, "unit": "g/day"}, {"measurement": "methane emissions", "setting": "calves; age 14 weeks, end of daily supplementation, 3 mg 3-NOP/kg BW oral gavage from birth", "result": 63.4, "unit": "g/day"}, {"measurement": "methane emissions", "setting": "calves; age 17 weeks, no supplementation (stopped week 14)", "result": 68.2, "unit": "g/day"}, {"measurement": "methane emissions", "setting": "calves; age 20 weeks, no supplementation (stopped week 14)", "result": 88.9, "unit": "g/day"}, {"measurement": "methane emissions", "setting": "calves; age 23 weeks, no supplementation (stopped week 14)", "result": 97.13, "unit": "g/day"}, {"measurement": "methane emissions", "setting": "calves; age 56 to 60 weeks, no supplementation (stopped week 14)", "result": 193.0, "unit": "g/day"}, {"measurement": "overall reduction in methane emissions (g CH4/d)", "setting": "calves; throughout the post-weaning period (week 11 to 23), vs control, P=0.03, treatment ceased three weeks post-weaning", "result": 11.6, "unit": "%"}, {"measurement": "overall reduction in methane emissions", "setting": "calves; weeks 56 to 60 of life, vs control, P<0.05, no supplementation since week 14", "result": "about 19%"}, {"measurement": "Bodyweight (BW) of calves", "setting": "[1]; age 0 weeks, treatment group n = 10", "result": 41.6, "unit": "kg"}, {"measurement": "Bodyweight (BW) of calves", "setting": "[1]; age 11 weeks, treatment group n = 10", "result": 102.2, "unit": "kg"}, {"measurement": "Bodyweight (BW) of calves", "setting": "[1]; age 14 weeks, treatment group n = 10", "result": 119.5, "unit": "kg"}, {"measurement": "Bodyweight (BW) of calves", "setting": "[1]; age 17 weeks, treatment group n = 10", "result": 134.9, "unit": "kg"}, {"measurement": "Bodyweight (BW) of calves", "setting": "[1]; age 20 weeks, treatment group n = 10", "result": 151.8, "unit": "kg"}, {"measurement": "Bodyweight (BW) of calves", "setting": "[1]; age 23 weeks, treatment group n = 10", "result": 189.5, "unit": "kg"}, {"measurement": "Bodyweight (BW) of calves", "setting": "[1]; age 56 to 60 weeks, treatment group n = 10", "result": 339, "unit": "kg"}, {"measurement": "effect on host animal performance (in words)", "setting": "[1]", "result": "no detrimental effects"}, {"measurement": "effect on host animal performance (in words)", "setting": "[1]; listed as 3-NOP", "result": "no adverse effect on performance"}, {"measurement": "Average Daily Gain (ADG)", "setting": "[1]; from week 0 to 23 weeks of life, treatment group n = 10", "result": 0.79, "unit": "kg/day"}]}]}
